Reference: patent US9180088B2, “Fulvestrant formulations” (SCIDOSE, LLC, priority 2008, dated 2015)
In brackets after ≈: the same amount, converted by molar mass. Values belong to the compound of their own block, whether it stands above or below them.

Experiments:
[1] = solubility of fulvestrant in solvents; format: physicochemical
[2] = test system: subplanar paw of the rat; assay: rat paw lick test; format: in vivo; details: 0.1 ml of solvent system injected on the subplanar paw of the rat
Procedure: In this method 0.1 ml of the solvent system is injected on the subplanar paw of the rat and the irritation is measured by the number of time that rat licks its paw over 15 minutes. This is quite quantitative and the number licks correlate to the irritation of the system.

- solubility ([1]; 20 mg/ml Lutrol in PEG 400 (2% Lutrol in PEG 400), organic solvent or mixture, in 20 mg/ml of Lutrol in PEG 400 (2% Lutrol in PEG 400)): 66.7 mg/mL (≈ 110 mM)
- solubility ([1]; 20 mg/ml Lutrol in propylene glycol, organic solvent or mixture, in 20 mg/ml of Lutrol in PG): 22.7 mg/mL (≈ 37.4 mM)
- solubility ([1]; 1,4-dioxane, organic solvent or mixture, in 1,4 Dioxan): 833 mg/mL (≈ 1370 mM)
- solubility ([1]; 10% ethanol/0.9% benzyl alcohol/30% PEG 400 in water (v/v), aqueous with cosolvent or surfactant or cyclodextrin, in 10% Ethanol/0.9% Benzylalcohol/30% PEG 400 in Water (v/v)): 10 mg/mL (≈ 16.5 mM)
- solubility ([1]; 20-50 mg/ml Lutrol in dihydrolipoic acid, organic solvent or mixture, in 20-50 mg/ml Lutrol in dihydrolipoic acid): > 350 mg/mL
- solubility ([1]; 50% dihydrolipoic acid/50% lipoic acid, organic solvent or mixture, in 50% dihydrolipoic acid/50% lipoic acid): > 350 mg/mL
- solubility ([1]; Lutrol/PEG400/propylene glycol blends, organic solvent or mixture, in the Lutrol/PEG400/propylene glycol blends): 50 mg/mL (≈ 82.4 mM)
- solubility ([1]; N-methylpyrrolidone, organic solvent or mixture, in N-Methylpyrrolidone): 864 mg/mL (≈ 1420 mM)
- solubility ([1]; PEG 400 + propylene glycol (1:1), organic solvent or mixture, in PEG 400 + PG (1:1)): 50 mg/mL
- solubility ([1]; PEG-400 (neat), organic solvent or mixture, in PEG-400 (neat)): 22.5 mg/mL (≈ 37.1 mM)
- solubility ([1]; aqueous with cosolvent or surfactant or cyclodextrin, in 10% Ethanol/0.9% Benzylalcohol/30% PEG 400/20 mg per ml Lecithin, in Water): 5 mg/mL (≈ 8.24 mM)
- solubility ([1]; dihydrolipoic acid, organic solvent or mixture, in Dihydrolipoic acid): > 450 mg/mL
- solubility ([1]; ethyl acetate, organic solvent or mixture, in Ethyl acetate): 7.8 mg/mL (≈ 12.9 mM)
- solubility ([1]; glycofurol, organic solvent or mixture, in Glycofurol): 400 mg/mL (≈ 659 mM)
- solubility of fulvestrant ([1]; in 0.9% Benzyl alcohol in Water): Insoluble
- solubility of fulvestrant ([1]; in 2% Benzyl alcohol in Water): Insoluble
- solubility of fulvestrant ([1]; in 10% Ethanol): Insoluble
- solubility of fulvestrant ([1]; in 10% Ethanol (in water) + PEG 400 (1:1)): Insoluble
- solubility of fulvestrant ([1]; in 30% Ethanol (in water)): Insoluble
- solubility of fulvestrant ([1]; in 50% Ethanol (in water)): Insoluble
- solubility of fulvestrant ([1]; in Aq.PVP K-30 solution (40 mg in 2 ml distil water)): Insoluble
- solubility of fulvestrant ([1]; in Cetylalcohol): 20 mg/1 g
- solubility of fulvestrant ([1]; in Fat emulsion): Insoluble
- solubility of fulvestrant ([1]; in Hydroxy Ethyl Starch (10%)): Insoluble
- solubility of fulvestrant ([1]; in Lauryl macrogol - 32 glyceride (Gelucire 44/14 by Gattefosse)): Insoluble
- solubility of fulvestrant ([1]; in Lecithin (1%)): Insoluble
- solubility of fulvestrant ([1]; in Peanut Oil): Insoluble
- solubility of fulvestrant ([1]; in Poloxamer(Lutrol f-68) (2% sol in water)): Insoluble
- solubility of fulvestrant ([1]; in Sodium Citrate (30 Mmol)): Insoluble
- solubility of fulvestrant ([1]; in TPGS 1000): Insoluble
- solubility of fulvestrant ([1]; in Tween 20 (1%)): Insoluble
- solubility of fulvestrant ([1]; in Tween 80 (1%)): Insoluble
- solubility ([1]; organic solvent or mixture, in 0.7 ml of (20 mg/ml of Lutrol in PEG 400) + 0.3 ml of Propylene Glycol): 50 mg/mL
- solubility ([1]; organic solvent or mixture, in 0.8 ml of (20 mg/ml of Lutrol in PEG 400) + 0.2 ml of Propylene Glycol): 50 mg/mL
- solubility ([1]; organic solvent or mixture, in 10% Ethanol/0.9% Benzylalcohol in PEG 400 (V/V, QS with PEG 400)): 10 mg/mL (≈ 16.5 mM)
- solubility ([1]; propylene glycol (neat), organic solvent or mixture, in Propylene Glycol (neat)): 4 mg/mL (≈ 6.59 mM)
- solubility ([1]; t-butanol, organic solvent or mixture, in T-butanol): 194 mg/mL (≈ 320 mM)
Compound: C[C@]12CC[C@@H]3c4ccc(O)cc4C[C@@H](CCCCCCCCC[S+]([O-])CCCC(F)(F)C(F)(F)F)[C@H]3[C@@H]1CC[C@@H]2O (stereo partly drawn) [fulvestrant, 7-alpha-[9-(4,4,5,5,5-pentafluoropentylsulphinyl)nonyl]estra-1,3,5-(10)-triene-3,17-beta-diol]

- number of times rat licks its paw in first 15 minutes ([2]; 15 minutes): Zero lick in first 15 minutes
Compound: Glycofurol [Test # 02]
- IRRITABILITY (rating) [2]: No Irritation
